From US20080274892A1, “Novel Haloalkylsulfonanilide Derivative, Herbicide, and Method of Use Thereof” (priority 2005, published 2008)

Columns and labels:
bulrush [1] = assay: Test Example 1: herbicidal efficacy on rice paddy weeds pre-emergence; format: in vivo, Scirpus juncoides; conditions: 21 days
false pimpernel [2] = assay: as above; format: in vivo, Lindernia pyxidaria; conditions: 21 days
barnyard glass = assay: Test Example 2: herbicidal efficacy on rice paddy weeds post-emergence; format: in vivo, Echinochloa crus-galli; conditions: post-emergence, one leaf stage, 21 days after treatment
Outline: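 Efficacy on paddy weeds was scored on a 0 to 4 growth-inhibition scale: 4 for 90%-100%, 3 for 70%-89%, 2 for 40%-69%, 1 for 1%-39% and 0 for 0%. Barnyard glass was grown in clay loam in 75 cm^2 pots under 5 cm of water in a hot house. It was compared with untreated pots 21 days after treatment.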

bulrush [3] = assay: as above; format: in vivo, Scirpus juncoides; conditions: post-emergence, one leaf stage, 21 days after treatment
false pimpernel [4] = assay: as above; format: in vivo, Lindernia pyxidaria; conditions: post-emergence, one leaf stage, 21 days after treatment
[5] = system: paddy rice plant (cultivar: Nihonbare); assay: Test Example 3: phytotoxicity test for transplanted paddy rice plant; format: in vivo; conditions: transplanted rice, 21 days after treatment
Outline: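 Clay loam soil was placed in a 75 cm^2 plastic pot and flooded to a water depth of 5 cm. Two Nihonbare paddy rice plants at the two-leaf stage were transplanted 1 cm deep and grown in a hot house. After treatment, pots stayed in the hot house for 21 days, and phytotoxicity was then graded against an untreated control.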

bulrush [6] = assay: Test Example 4: low dosage test for rice paddy weeds; format: in vivo, Scirpus juncoides; conditions: 300 g/ha as an active ingredient; plants treated at the one leaf stage; 21 days after treatment; vs untreated control
Excerpt: (§1) The standard of judgment for herbicidal efficacy (degree of growth inhibition) and phytotoxicity 4 . . . 90%-100% of herbicidal efficacy or phytotoxicity 3 . . . 70%-89% of herbicidal efficacy or phytotoxicity 2 . . . 40%-69% of herbicidal efficacy or phytotoxicity 1 . . . 1%-39% of herbicidal efficacy or phytotoxicity 0 . . . 0% of herbicidal efficacy or phytotoxicity
A 75 cm^2 plastic pot was filled with soil (clay loam) and planted seeds of bulrush which is a rice paddy weed. After covering the top with 75 cm^3 soil, the pot was filled with water so that the soil submerged under 5 cm depth of water and kept in a hot house. The test plants, at the one leaf stage, were treated with the solution of a formulation containing the compound of the present invention as an active ingredient at the predetermined effective dosage (300 g/ha as an active ingredient). The pots were kept in a hot house for 21 days after the treatment and the herbicidal efficacy was investigated and evaluated according to the standard in Test Example 1 by comparing with the untreated control. Further, as a comparative compound, the compound No. 6-28 described in the JP-A-2004-107322 was used.

[7] = system: transplanted paddy rice plant and Bulrush; assay: Test Example 5: selectivity between transplanted paddy rice plant and weeds; format: in vivo; conditions: (highest dosage with no phytotoxicity to paddy rice)/(lowest dosage with effective level 4 on Bulrush); rice 3000-100 g/ha, Bulrush 300-10 g/ha; 21 days
Procedure: as §1
Phytotoxicity test for transplanted paddy rice plants was carried out, as in Test Example 3, by the treatment of 3000, 1000, 300 and 100 (g/ha of the active ingredient) dosage, and herbicidal test to weed post-emergence was carried out to Burlush seeded as in Test Example 2 treating at 300, 100, 30 and 10 (g/ha) dosage. The pots were kept in a hot house for 21 days after the treatment, and the phytotoxicity and the herbicidal efficacy was investigated and evaluated according to the standard in Test Example 1 by comparing with the untreated control. […] Further, as a comparative compound, the compound No. 6-28 described in the JP-A-2004-107322 was used.

[8] = dosage 1000 g/ha, treated 5 days after transplantation

| SMILES | Bulrush pre (herbicidal efficacy grade) (bulrush [1]; dosage 1000 g/ha) | False pimpernel pre (herbicidal efficacy grade) (false pimpernel [2]; dosage 1000 g/ha) | Burnyard grass post (herbicidal efficacy grade) (barnyard glass; dosage 1000 g/ha) | Bulrush post (herbicidal efficacy grade) (bulrush [3]; dosage 1000 g/ha) | False pimpernel post (herbicidal efficacy grade) (false pimpernel [4]; dosage 1000 g/ha) | Phytotoxicity to paddy rice [5, 8] | Herbicide effect to Bulrush (bulrush [6]) | Selective Index [7] | Bulrush pre (herbicidal efficacy grade) (bulrush [1]; dosage 300 g/ha) | False pimpernel pre (herbicidal efficacy grade) (false pimpernel [2]; dosage 300 g/ha) | Burnyard grass post (herbicidal efficacy grade) (barnyard glass; dosage 300 g/ha) | Bulrush post (herbicidal efficacy grade) (bulrush [3]; dosage 300 g/ha) | False pimpernel post (herbicidal efficacy grade) (false pimpernel [4]; dosage 300 g/ha) | Phytotoxicity to paddy rice ([5]; dosage 300 g/ha) |
| --- | --- | --- | --- | --- | --- | --- | --- | --- | --- | --- | --- | --- | --- | --- |
| COCC1(C)CN(Cc2ccccc2N(C(=O)OCC(C)(C)C)S(=O)(=O)C(F)(F)F)C(=O)O1 (stereo not shown) [1-146] | 4 (90%-100% of herbicidal efficacy or phytotoxicity) | 4 (90%-100% of herbicidal efficacy or phytotoxicity) | 4 (90%-100% of herbicidal efficacy or phytotoxicity) | 4 (90%-100% of herbicidal efficacy or phytotoxicity) | 4 (90%-100% of herbicidal efficacy or phytotoxicity) | 1 (1%-39% of herbicidal efficacy or phytotoxicity) | 4 (90%-100% of herbicidal efficacy or phytotoxicity) | 10 |  |  |  |  |  |  |
| CCC1(C)CN(Cc2ccccc2NS(=O)(=O)C(F)(F)F)C(=O)O1 (racemic) [1-59] |  |  |  |  |  |  | 4 (90%-100% of herbicidal efficacy or phytotoxicity) | 3.3 | 4 (90%-100% of herbicidal efficacy or phytotoxicity) | 4 (90%-100% of herbicidal efficacy or phytotoxicity) | 3 (70%-89% of herbicidal efficacy or phytotoxicity) | 4 (90%-100% of herbicidal efficacy or phytotoxicity) | 4 (90%-100% of herbicidal efficacy or phytotoxicity) | 3 (70%-89% of herbicidal efficacy or phytotoxicity) |
| CC(C)COC(=O)N(c1ccccc1CN1CC(CCl)OC1=O)S(=O)(=O)C(F)(F)F (stereo not shown) [1-40] | 4 (90%-100% of herbicidal efficacy or phytotoxicity) | 4 (90%-100% of herbicidal efficacy or phytotoxicity) | 4 (90%-100% of herbicidal efficacy or phytotoxicity) | 4 (90%-100% of herbicidal efficacy or phytotoxicity) | 4 (90%-100% of herbicidal efficacy or phytotoxicity) | 0 (0% of herbicidal efficacy or phytotoxicity) | 4 (90%-100% of herbicidal efficacy or phytotoxicity) | 100 |  |  |  |  |  |  |
| CC(C)COC(=O)N(c1ccccc1CN1CC(C)OC1=O)S(=O)(=O)C(F)(F)F (stereo not shown) [Compound No. 1-18] | 4 (90%-100% of herbicidal efficacy or phytotoxicity) | 4 (90%-100% of herbicidal efficacy or phytotoxicity) | 4 (90%-100% of herbicidal efficacy or phytotoxicity) | 4 (90%-100% of herbicidal efficacy or phytotoxicity) | 4 (90%-100% of herbicidal efficacy or phytotoxicity) | 0 (0% of herbicidal efficacy or phytotoxicity) | 4 (90%-100% of herbicidal efficacy or phytotoxicity) | 33 |  |  |  |  |  |  |
| CCCC1(CC)CN(Cc2ccccc2N(C(=O)OCC(C)C)S(=O)(=O)C(F)(F)F)C(=O)O1 (stereo not shown) [1-132] | 4 (90%-100% of herbicidal efficacy or phytotoxicity) | 4 (90%-100% of herbicidal efficacy or phytotoxicity) | 4 (90%-100% of herbicidal efficacy or phytotoxicity) | 4 (90%-100% of herbicidal efficacy or phytotoxicity) | 4 (90%-100% of herbicidal efficacy or phytotoxicity) | 1 (1%-39% of herbicidal efficacy or phytotoxicity) | 4 (90%-100% of herbicidal efficacy or phytotoxicity) | 10 |  |  |  |  |  |  |
| CCCCCCOC(=O)N(c1ccccc1CN1CC(C)(C)OC1=O)S(=O)(=O)C(F)(F)F [1-93] | 4 (90%-100% of herbicidal efficacy or phytotoxicity) | 4 (90%-100% of herbicidal efficacy or phytotoxicity) | 4 (90%-100% of herbicidal efficacy or phytotoxicity) | 4 (90%-100% of herbicidal efficacy or phytotoxicity) | 4 (90%-100% of herbicidal efficacy or phytotoxicity) | 1 (1%-39% of herbicidal efficacy or phytotoxicity) | 4 (90%-100% of herbicidal efficacy or phytotoxicity) | ≧30 |  |  |  |  |  |  |
| CCC1(C(C)C)CN(Cc2ccccc2N(C(=O)OC)S(=O)(=O)C(F)(F)F)C(=O)O1 (stereo not shown) [1-145] | 4 (90%-100% of herbicidal efficacy or phytotoxicity) | 4 (90%-100% of herbicidal efficacy or phytotoxicity) | 4 (90%-100% of herbicidal efficacy or phytotoxicity) | 4 (90%-100% of herbicidal efficacy or phytotoxicity) | 4 (90%-100% of herbicidal efficacy or phytotoxicity) | 2 (40%-69% of herbicidal efficacy or phytotoxicity) | 4 (90%-100% of herbicidal efficacy or phytotoxicity) | 10 |  |  |  |  |  |  |
| COC(=O)N(c1ccccc1CN1CC(C)(C)OC1=O)S(=O)(=O)C(F)(F)F [1-64] | 4 (90%-100% of herbicidal efficacy or phytotoxicity) | 4 (90%-100% of herbicidal efficacy or phytotoxicity) | 4 (90%-100% of herbicidal efficacy or phytotoxicity) | 4 (90%-100% of herbicidal efficacy or phytotoxicity) | 4 (90%-100% of herbicidal efficacy or phytotoxicity) | 2 (40%-69% of herbicidal efficacy or phytotoxicity) | 4 (90%-100% of herbicidal efficacy or phytotoxicity) | ≧30 |  |  |  |  |  |  |
| CCC1(C(C)C)CN(Cc2ccccc2N(C(=O)OCC(C)C)S(=O)(=O)C(F)(F)F)C(=O)O1 (stereo not shown) [1-133] | 4 (90%-100% of herbicidal efficacy or phytotoxicity) | 4 (90%-100% of herbicidal efficacy or phytotoxicity) | 4 (90%-100% of herbicidal efficacy or phytotoxicity) | 4 (90%-100% of herbicidal efficacy or phytotoxicity) | 4 (90%-100% of herbicidal efficacy or phytotoxicity) | 1 (1%-39% of herbicidal efficacy or phytotoxicity) | 4 (90%-100% of herbicidal efficacy or phytotoxicity) | 10 |  |  |  |  |  |  |
| CCC1(C)CN(Cc2ccccc2N(C(=O)OC)S(=O)(=O)C(F)(F)F)C(=O)O1 (racemic) [1-108] | 4 (90%-100% of herbicidal efficacy or phytotoxicity) | 4 (90%-100% of herbicidal efficacy or phytotoxicity) | 4 (90%-100% of herbicidal efficacy or phytotoxicity) | 4 (90%-100% of herbicidal efficacy or phytotoxicity) | 4 (90%-100% of herbicidal efficacy or phytotoxicity) | 2 (40%-69% of herbicidal efficacy or phytotoxicity) | 4 (90%-100% of herbicidal efficacy or phytotoxicity) | 30 |  |  |  |  |  |  |
| CC1(C(F)(F)F)CN(Cc2ccccc2NS(=O)(=O)C(F)(F)F)C(=O)O1 (stereo not shown) [1-135] |  |  |  |  |  |  | 3 (70%-89% of herbicidal efficacy or phytotoxicity) | 3 | 4 (90%-100% of herbicidal efficacy or phytotoxicity) | 4 (90%-100% of herbicidal efficacy or phytotoxicity) | 2 (40%-69% of herbicidal efficacy or phytotoxicity) | 4 (90%-100% of herbicidal efficacy or phytotoxicity) | 4 (90%-100% of herbicidal efficacy or phytotoxicity) | 1 (1%-39% of herbicidal efficacy or phytotoxicity) |
